Usually IC50 stands for the concentration at which inhibition is half-maximal.

The subject of experiment [1] is MCF7. Put plainly: Anticancer activity against human MCF7 cells assessed as inhibition of cell growth incubated for 24 hrs by MTT assay. The following applies: MCF7, 24 h. The format is functional, cell-based. (Tetrazolium assays rely on reduction of a dye to a coloured formazan, in cell work by metabolically active cells.)
Experiment [2] deals with A549. Put plainly: Anticancer activity against human A549 cells assessed as inhibition of cell growth incubated for 24 hrs by MTT assay. It counts as functional, cell-based. Conditions: A549, 24 h.
Experiment [3] concerns P388. Put plainly: Anticancer activity against mouse P388 cells assessed as inhibition of cell growth. It counts as functional, cell-based.
The test system of experiment [4] is HT-29. Put plainly: Anticancer activity against human HT-29 cells assessed as inhibition of cell growth. It counts as functional, cell-based.
The subject of experiment [5] is A549. Put plainly: Anticancer activity against human A549 cells assessed as inhibition of cell growth. It counts as functional, cell-based.
Experiment [6] has as its system A549. Put plainly: Anticancer activity against human A549 cells assessed as inhibition of cell growth by dilution assay. It counts as functional, cell-based.
In experiment [7] the test system is P388. Put plainly: Anticancer activity against mouse P388 cells assessed as inhibition of cell growth by dilution assay. It counts as functional, cell-based.
In experiment [8] the test system is HT-29. Put plainly: Anticancer activity against human HT-29 cells assessed as inhibition of cell growth by dilution assay. The format is functional, cell-based.
Experiment [9] relates to HCT-116. Put plainly: Anticancer activity against human HCT-116 cells assessed as inhibition of cell growth incubated for 72 hrs by MTT assay. The format is functional, cell-based. The following applies: HCT-116, 72 h.
In experiment [10] the test system is HCT-116. Put plainly: Anticancer activity against human HCT-116 cells assessed as inhibition of cell growth by MTS assay. The format is functional, cell-based.
For experiment [11], the system named is HeLa. Put plainly: Anticancer activity against human HeLa cells assessed as inhibition of cell growth incubated for 24 hrs by MTT assay. It counts as functional, cell-based.
In experiment [12] the test system is HeLa. Put plainly: Anticancer activity against human HeLa cells assessed as inhibition of cell growth. It counts as functional, cell-based.
The test system of experiment [13] is Daoy. Put plainly: Anticancer activity against human Daoy cells assessed as inhibition of cell growth. It counts as functional, cell-based.
Experiment [14] deals with L5178Y. Put plainly: Anticancer activity against mouse L5178Y assessed as cell growth inhibition by [3H]-thymidine assay relative to control. The format is functional.
Experiment [15] has as its system L5178Y. Put plainly: Anticancer activity against mouse L5178Y assessed as cell growth inhibition by [3H]-thymidine assay. It counts as functional, cell-based.
The subject of experiment [16] is A549. Put plainly: Anticancer activity against human A549 cells assessed as cell growth inhibition. The format is functional, cell-based.
In experiment [17] the test system is PC-3. Put plainly: Anticancer activity against human PC-3 cells assessed as inhibition of cell growth. It counts as functional, cell-based.
The subject of experiment [18] is MCF7. Put plainly: Anticancer activity against human MCF7 cells assessed as inhibition of cell growth. It counts as functional, cell-based.
The subject of experiment [19] is A549. Put plainly: Antiproliferative activity against human A549 cells assessed as cell growth inhibition incubated for 72 hrs by SRB assay. The format is functional, cell-based. The following applies: A549, 72 h. (In general: The SRB assay estimates cell density from bound dye.)
Experiment [20] has as its system HT-29. Put plainly: Antiproliferative activity against human HT-29 cells assessed as cell growth inhibition incubated for 72 hrs by SRB assay. The following applies: HT-29, 72 h. It counts as functional, cell-based.
Experiment [21] deals with MDA-MB-231. Put plainly: Antiproliferative activity against human MDA-MB-231 cells assessed as cell growth inhibition incubated for 72 hrs by SRB assay. The format is functional, cell-based. Conditions: MDA-MB-231, 72 h.
Experiment [22] concerns KB 3-1. Put plainly: Anticancer activity against human KB 3-1 cells assessed as inhibition in cell growth. It counts as functional, cell-based.
Experiment [23] has as its system HT-29. Put plainly: Anticancer activity against human HT-29 cells assessed as cell growth inhibition. It counts as functional, cell-based.
For experiment [24], the system named is SK-MEL-28. Put plainly: Anticancer activity against human MEL-28 cells assessed as cell growth inhibition. The format is functional, cell-based.
Experiment [25] has as its system P388. Put plainly: Anticancer activity against mouse P388 cells assessed as cell growth inhibition. The format is functional, cell-based.

On to `C#C/C=C\CCCCCCCCCCC#CCCC(=O)NCCc1ccccc1`, for which the IC50 in experiment [1] was found to be 18 µM; in experiment [2], 24.2 µM.

On to `C=C(CCC[C@@]1(C)CC[C@H]([C@@H](C)C(=O)OC)OO1)CCC1(O)C(=C)CCCC1(C)C` (stereo partly drawn), for which the IC50 in experiment [3], in experiment [4] and in [5] was more than 0.0024 µM each time.

Regarding `CC(=O)O[C@H]1CC[C@]2(C)[C@H]3C[C@@H](O)[C@]4(C)C5=C(CC[C@H]4[C@]3(C)CC[C@H]2C1(C)C)COC5=O`, the IC50 is 0.0022 µM in experiment [6], 0.0022 µM in [7] and more than 0.0022 µM in experiment [8].

As for `CC(C)[C@@H](C)/C=C/[C@@H](C)[C@H]1CC[C@H]2C3=C(CC[C@]12C)[C@@]1(C)CC[C@H](O)CC1=CC3=O`, the IC50 in experiment [9] stood at 40 µM.

On to `CO[C@H]1C[C@H](CC[C@H](C)[C@H](O)[C@H](C)[C@H]2OC(=O)/C=C/C(C)=C/C[C@@H](O)C[C@H]3C=CC[C@@H](C[C@H](OC)[C@@H](C)[C@@H](O)C[C@@H](O)[C@H](C)[C@@H]([C@@H](C)[C@@H](O)[C@@H](C)CC[C@H]4C[C@H](OC)C[C@H](C)O4)OC(=O)/C(C)=C/C[C@H](O)C[C@@H]4C=CC[C@@H](C[C@H](OC)[C@@H](C)[C@@H](O)C[C@@H](O)[C@@H]2C)O4)O3)O[C@@H](C)C1`, for which, in experiment [10], the 50% inhibitory concentration (IC50) was determined as 0.365 µM.

Take `C#C/C=C\CCCCCCCCCCC#CCCC(=O)NCCc1c[nH]c2ccccc12`: the IC50 is 17.4 µM in [11], 34.1 µM in [1] and 25.9 µM in experiment [2].

On to `O=C(O)CCCC#C/C=C/CC/C=C/C#C/C=C/Br`, for which the values for the IC50 in [12] and in [13] were 0.138 µM and 0.0765 µM, respectively.

In the case of `O=Cc1c[nH]c2ccccc12` [3-FORMYLINDOLE], the “inhibition (INH)” value in experiment [14] is given as 53%. Besides, the IC50 in experiment [15] came out at 0.069 µM.

Turning to `CC1=C(CC/C(C)=C/CC[C@@]2(C)CC[C@H]([C@@H](C)C(=O)O)OO2)C(C)(C)CCC1`, the IC50 in [16] came out at 3 µM; in experiment [17], 8 µM; in experiment [18], 7 µM.

Consider `CC(=O)O[C@@H]1c2occc2[C@@H](O)C[C@H]2[C@]3(C)CC[C@H]4C(C)(C)CCC[C@]4(C)[C@H]3C[C@@]21C` [SALMAHYRTISOL A], for which the results for the IC50 in experiment [6], in [7] and in [8] were 0.0022 µM, 0.0022 µM and more than 0.0022 µM, respectively.

On to `COc1ccc2[nH]c3c(-c4c[nH]c5cc(O)ccc45)ncc(C(=O)O)c3c2c1`, for which the IC50 amounted to 100 µM in experiment [19], 85 µM in experiment [20] and 90 µM in experiment [21].

Take `CC1=CCC2C(CC[C@@]2(C)O)C(C)(C)[C@@H]1CC[C@H]1[C@@](C)(O)CCC2OC(C)(C)[C@H](O)CC[C@@]21C` (stereo partly drawn): the IC50 in experiment [17] worked out at 7.9 µM; in [22], 0.0048 µM; in experiment [5], 8.9 µM.

As to `O=C(O)c1cnc(-c2c[nH]c3cc(O)ccc23)c2[nH]c3ccc(O)cc3c12`, the IC50 in experiment [19] was 30 µM; in experiment [20], 28 µM; in experiment [21], 25 µM.

With `CC(C)[C@@H](C)/C=C/[C@@H](C)[C@H]1CC[C@@]23O[C@@]24C(=O)C[C@H]2CC(=O)CC[C@]2(C)[C@H]4CC[C@]13C`, the IC50 in experiment [9] stood at 45 µM.

With `C#C/C=C\CCCCCCCCC#CCCC(=O)NCCc1ccccc1`, the IC50 in experiment [11] came out at 4.1 µM; in experiment [1], 19.4 µM; in experiment [2], 30 µM.

With `C=C(CCC1=C(C)CCCC1(C)C)C(O)CC[C@@]1(C)CC[C@H]([C@@H](C)C(=O)O)OO1` (stereo partly drawn), the 50% inhibitory concentration (IC50) in [3], in [4] and in experiment [5] was more than 0.0024 µM in each case.

Take `C=C1CCC[C@@H]2[C@@](C)(CC[C@@]3(C)CCn4cnc5ncnc(c54)N3O)[C@H](C)CC[C@@]12C`: the IC50 in experiment [23], in experiment [16], in experiment [24] and in experiment [25] was 1.18 µM throughout.

These data come from ChEMBL document CHEMBL5149985, “Discovery of cytotoxic natural products from Red Sea sponges: Structure and synthesis” (Eur J Med Chem, 2021).
